Assay results from patent US6518278B1, “Carcinostatic substance for compatible administration, process of administrating same and process of rapidly inspecting same” (Debio Pharm S.A., priority 1994, dated 2003).
Entries after “also recorded” stand apart in the source; their conditions may differ.

Tested on: human leutecyte strain cell (RPMI-8402)
Assay: Extinction effect of compatible administration of l-OHP and a compatible agent on tumor cells (compatible efficiency OE)
Type: cell-based
Settings: for Compatible Effects of l-OHP and Compatible Agent, Simultaneous Administration: both added day 1
Method: In the evaluation of the extinction effect of the tumor cells of the respective combinations, a pure extinction effect produced by the compatible administration of the compatible agent and the l-OHP is calculated by subtracting an extinction effect of a control (no carcinostatic substance is employed).
The compatibly administration effect is calculated by employing an Equation (1) described later. When the value (%) calculated by this Equation is between 85 and 115%, the compatible administration effect is evaluated to be an additive effect. When the value is below 85%, it is evaluated to be below the additive effect. When the value is over 115%, it is evaluated to be a synergistic effect, ±15% is a reliability limit or a measurement error.
A target tumor cell was a human leutecyte strain cell (RPMI-8402 of Gibuko K.K.). To these cells was added blood serum of a cow embryo (15%, Gibuko K.K.) to prepare a cell floating liquid of which the number of the cells was 10^6/ml in a cultivation bottle (tradename; Sumiron of Sumitomo Bakelite o., Ltd.) having a volume of 6 ml. A plenty of the cultivation bottles having the cell floating liquid therein were prepared, and the following experiments were conducted while selecting one kind of a compatible agent among cisplatin, 5-FU, irinotecane, adriamycin, etoposide, mitomycin, mitoxantrone, bleomycin, vincristin and vindecin. The time schedules of the controls (no addition of medicines, addition of only the l-OHP and addition of only a compatible agent, and specified in the below items (1) to (4)) and of the compatible administration of the compatible agent and the l-OHP are shown in FIG. 10.
(1) No medicine was added (control).
(2) Only the l-OHP was added at a second day.
(3) A large amount of compatible agents were added at a first day ([…] of the cisplatin, 10 μg/ml of the 5-FU, 0.05 μg/ml of the adriamycin and 1 μg/ml of the etoposide, and for the comparison purpose, 0.05 μg/ml of the vincristin and 0.06 μg/ml of the vindecin). The adding amount of the irinotecano was fixed to 10 μg/ml, and the addition amount of the l-OHP was 5 μg/ml.
(4) A small amount of compatible agents were added at a first day (0.5 μg/ml of the cisplatin, 5 μg/ml of the 5-FU, 0.01 μg/ml of the adriamycin and 0.5 μg/ml of the etoposide, and for the comparison purpose, 0.01 μg/ml of the vincristin and 0.01 μg/ml of the vindecin). The adding amount of the irinotecane was fixed to 10 μg/ml, and the addition amount of the l-OHP was 1 μg/ml.
(5) The l-OHP and a large amount (the same as that of the above item (3) and so forth in the following items) of the compatible agents were simultaneously added at a first day.
(6) The l-OHP and a small amount (the same as that of the above item (4) and so forth in the following items) of the compatible agents were simultaneously added at a first day.
(7) The l-OHP was added at a first day and a large amount of the compatible agents were added at a second day.
(8) The l-OHP was added at a first day and a small amount of the compatible agents were added at a second day.
(9) The l-OHP was added at a first day and a large amount of the compatible agents were added at a third day.
(10) The l-OHP was added at a first day and a small amount of the compatible agents were added at a third day.
(11) The l-OHP was added at a first day and a large amount of the compatible agents were added at a fourth day.
(12) The l-OHP was added at a first day and a small amount of the compatible agents were added at a fourth day.
(13) A large amount of the compatible agents were added at a first day and the l-OHP was added at a second day.
(14) A small amount of the compatible agents were added at a first day and the l-OHP was added at a second day.
(15) A large amount of the compatible agents were added at a first day and the l-OHP was added at a third day.
(16) A small amount of the compatible agents were added at a first day and the l-OHP was added at a third day.

[1] = larger dosage of compatible agent (μg/ml: cisplatin 1, 5-FU 10, irinotecane 10, adriamycin 0.05, vincristin 0.05, vindecin 0.05, etoposide 1, bleomycin 10, mitoxantrone 0.1, mitomycine 1), l-OHP 1 μg/ml (5 μg/ml with irinotecane) added day 1
[2] = larger dosage of compatible agent (μg/ml: cisplatin 1, 5-FU 10, irinotecane 10, adriamycin 0.05, vincristin 0.05, vindecin 0.05, etoposide 1, bleomycin 10, mitoxantrone 0.1, mitomycine 1), l-OHP 1 μg/ml (5 μg/ml with irinotecane)
[3] = larger dosage of compatible agent added day 1 (μg/ml: cisplatin 1, 5-FU 10, irinotecane 10, adriamycin 0.05, vincristin 0.05, vindecin 0.05, etoposide 1, bleomycin 10, mitoxantrone 0.1, mitomycine 1), l-OHP 1 μg/ml (5 μg/ml with irinotecane)
[4] = smaller dosage of compatible agent (μg/ml: cisplatin 0.5, 5-FU 5, irinotecane 10, adriamycin 0.01, vincristin 0.01, vindecin 0.01, etoposide 0.5, bleomycin 1, mitoxantrone 0.05, mitomycine 0.5), l-OHP 1 μg/ml added day 1
[5] = smaller dosage of compatible agent (μg/ml: cisplatin 0.5, 5-FU 5, irinotecane 10, adriamycin 0.01, vincristin 0.01, vindecin 0.01, etoposide 0.5, bleomycin 1, mitoxantrone 0.05, mitomycine 0.5), l-OHP 1 μg/ml
[6] = smaller dosage of compatible agent added day 1 (μg/ml: cisplatin 0.5, 5-FU 5, irinotecane 10, adriamycin 0.01, vincristin 0.01, vindecin 0.01, etoposide 0.5, bleomycin 1, mitoxantrone 0.05, mitomycine 0.5), l-OHP 1 μg/ml

Row | Compound | compatible administration effect with l-OHP, summary in words | Compatible Effects of l-OHP and Compatible Agent, Time Lag Administration, Addition Administration of Compatible Agent day 2 [1] | Compatible Effects of l-OHP and Compatible Agent, Time Lag Administration, Addition Administration of Compatible Agent day 3 [1] | Compatible Effects of l-OHP and Compatible Agent, Time Lag Administration, Addition Administration of Compatible Agent day 4 [1] | Compatible Effects of l-OHP and Compatible Agent, Simultaneous Administration [2] | Compatible Effects of l-OHP and Compatible Agent, Time Lag Administration, Addition Administration of l-OHP day 2 [3] | Compatible Effects of l-OHP and Compatible Agent, Time Lag Administration, Addition Administration of l-OHP day 3 [3] | Compatible Effects of l-OHP and Compatible Agent, Time Lag Administration, Addition Administration of l-OHP day 4 [3] | Compatible Effects of l-OHP and Compatible Agent, Time Lag Administration, Addition Administration of Compatible Agent day 2 [4] | Compatible Effects of l-OHP and Compatible Agent, Time Lag Administration, Addition Administration of Compatible Agent day 3 [4] | Compatible Effects of l-OHP and Compatible Agent, Time Lag Administration, Addition Administration of Compatible Agent day 4 [4] | Compatible Effects of l-OHP and Compatible Agent, Simultaneous Administration [5] | Compatible Effects of l-OHP and Compatible Agent, Time Lag Administration, Addition Administration of l-OHP day 2 [6] | Compatible Effects of l-OHP and Compatible Agent, Time Lag Administration, Addition Administration of l-OHP day 3 [6] | Compatible Effects of l-OHP and Compatible Agent, Time Lag Administration, Addition Administration of l-OHP day 4 [6]
1 | CCc1c2c(nc3ccc(OC(=O)N4CCC(N5CCCCC5)CC4)cc13)-c1cc3c(c(=O)n1C2)COC(=O)[C@]3(O)CC [irinotecane] | the additive effect or the synergistic effect regardless of the administration method and the dosage in almost all the cases; also recorded: synergistic effects can be obtained in all the combinations when the l-OHP is added later | ◯ (◯: Additive Effect) | ◯ (◯: Additive Effect) | Δ (Δ: Below Additive Effect) | ◯ (◯: Additive Effect) | ◯ (◯: Additive Effect) | • (•: Synergistic Effect) | • (•: Synergistic Effect) | ◯ (◯: Additive Effect) | ◯ (◯: Additive Effect) | ◯ (◯: Additive Effect) | ◯ (◯: Additive Effect) | • (•: Synergistic Effect) | • (•: Synergistic Effect) | • (•: Synergistic Effect)
2 | CO[C@@]12[C@H](COC(N)=O)C3=C(C(=O)C(C)=C(N)C3=O)N1C[C@@H]1N[C@@H]12 [mitomycine, mitomycin] | the additive effect or the synergistic effect regardless of the administration method and the dosage in almost all the cases; also recorded: synergistic effects can be obtained in most combinations when the l-OHP is administrated before to the mitomycin | ◯ (◯: Additive Effect) | • (•: Synergistic Effect) | • (•: Synergistic Effect) | ◯ (◯: Additive Effect) | ◯ (◯: Additive Effect) | Δ (Δ: Below Additive Effect) | Δ (Δ: Below Additive Effect) | ◯ (◯: Additive Effect) | • (•: Synergistic Effect) | • (•: Synergistic Effect) | ◯ (◯: Additive Effect) | ◯ (◯: Additive Effect) | Δ (Δ: Below Additive Effect) | ◯ (◯: Additive Effect)
3 | O=C1c2c(O)ccc(O)c2C(=O)c2c(NCCNCCO)ccc(NCCNCCO)c21 [mitoxantrone] | the additive effect or the synergistic effect regardless of the administration method and the dosage in almost all the cases; also recorded: synergistic effects can be obtained in all the combinations when a small amount of the mitoxantrone is employed and the l-OHP is added later | • (•: Synergistic Effect) | ◯ (◯: Additive Effect) | Δ (Δ: Below Additive Effect) | ◯ (◯: Additive Effect) | ◯ (◯: Additive Effect) | ◯ (◯: Additive Effect) | ◯ (◯: Additive Effect) | ◯ (◯: Additive Effect) | • (•: Synergistic Effect) | Δ (Δ: Below Additive Effect) | • (•: Synergistic Effect) | • (•: Synergistic Effect) | • (•: Synergistic Effect) | • (•: Synergistic Effect)
